Reference: US8183211B2, “Pharmaceutical compositions for inhibiting intestinal permeability” (University of Maryland, Baltimore, priority 2000, dated 2012)
Ends that are not written are not given here.

How the values were obtained:
rabbit ileum = assay: Tissue resistance (Rt) of rabbit ileum mounted in Ussing chambers; format: cell-based
Procedure: Next, rabbit ileum mounted in Ussing chambers as described above, were exposed to 100 μg of FZI/0 (SEQ ID NO:15), 100 μg of FZI/1 (SEQ ID NO:29), 1.0 μg of 6×His-ZOT (obtained as described in Example 1 of U.S. patent application Ser. No. 09/127,815, filed Aug. 3, 1998), 1.0 μg of zonulini (obtained as described in Example 3 of U.S. patent application Ser. No. 09/127,815, filed Aug. 3, 1998), or 1.0 μg of zonulinh (obtained as described in Example 3of U.S. patent application Ser. No. 09/127,815, filed Aug. 3, 1998), alone; or pre-exposed for 20 min to 100 μg of FZI/0 or FZI/1, at which time 1.0 μg of 6×His-ZOT, 1.0 μg of zonulini, or 1.0 μg of zonulinh, was added. ΔRt was then calculated as described above.

BB/Wor rats = assay: BB/Wor diabetic rat model, progression to diabetes; format: in vivo; conditions: 10 μg/ml in drinking water
Procedure: Both groups were maintained on a standard diet of rat chow (Harlan Teklab Diet #7012). All food and water were previously autoclaved. Each day, daily water intake was measured and 100 ml of fresh water was given. The treated group received 10 μg/ml of the zonulin peptide antagonist (SEQ ID NO:15) supplemented in the drinking water. The rats were housed in hepa-filter cages.
Diabetes in the rats was diagnosed as follows: The rats were weighed twice a week. Blood glucose was determined weekly using the OneTouch® glucose monitoring system (Johnson & Johnson). Each week, reagent strips for urinalysis were used to monitor glucose (Diastix®) and ketones (Ketositx®) (Bayer). Rats with a blood glucose>250 mg/dl were fasted overnight, and blood glucose levels>200 mg/dl were considered diabetic.
Following clinical presentation of diabetes, the rats were sacrificed as follows: the rats were anesthesized using ketamine anesthesia and a midline incision was made allowing access to the heart. An 18 G needle was placed into the heart and death occurred by exsanguinations. Then, zonulin assays were conducted as described above. […] According to Biomedical Research Models, Inc., 80% of diabetes prone rats present with diabetes by age 80 days.

rabbit ileal mucosa = conditions: cited from earlier work

**Q.** For “FZI/1: second synthetic peptide: Gly in position 8, Val in position 12, Gln in position 13 changed to Val, Gly, Arg (VGVLGRPG; tight junction antagonist peptide) [reference compound]”, which “inhibitory effect on ZOT, zonulini and zonulinh action on Rt” value (rabbit ileum; pre-exposure for 20 min to 100 μg peptide) is on record?
**A.** Its value is “completely ablated”.

**Q.** For “GGVLVQPG [FZI/0, synthetic octapeptide corresponding to amino acid residues 8-15 of human fetal zonulini]”, which “change in Rt as compared to the negative control” value (rabbit ileum; 100 μg peptide alone, rabbit ileum) is on record?
**A.** Its value is 0.5%.

**Q.** And the “decrease of the effect of ZOT on Rt” value (rabbit ileum; pre-treatment for 20 min with 100 μg peptide, then 1.0 μg 6×His-ZOT)?
**A.** Its value is 75%.

**Q.** And the “decrease of the effect of zonulinh on Rt” value (rabbit ileum; pre-treatment for 20 min with 100 μg peptide, then 1.0 μg zonulinh)?
**A.** Its value is 100%.

**Q.** And the “decrease of the effect of zonulini on Rt” value (rabbit ileum; pre-treatment for 20 min with 100 μg peptide, then 1.0 μg zonulini)?
**A.** Its value is 97%.

**Q.** And the “treated rats that did not develop diabetes” value (BB/Wor rats; endpoint age 80 days)?
**A.** Its value is 60%.

**Q.** And the “rats that developed diabetes by age 80 days” value (BB/Wor rats; n=5, control rats 80%)?
**A.** Its value is 40%.

**Q.** Which “Na+-glucose coupled active transport” value (rabbit ileal mucosa) does the source give for “ZOT: zonula occludens toxin elaborated by V. cholerae” here?
**A.** The value was “does not affect”.

**Q.** And the cytotoxicity (rabbit ileal mucosa)?
**A.** The cytotoxicity was “not cytotoxic”.

**Q.** And the transepithelial resistance (rabbit ileal mucosa)?
**A.** The transepithelial resistance was “fails to completely abolish”.
